Literature values in patent US20090117584A1, “Non-Human mammalian Arthritis Model Featuring Human Antibodies Against Citrul-Linated Proteins” (GENMAB A/S, priority 2005, published 2009).

How the values were obtained:
human IgG = conditions: SCID mice engrafted with human RA tissue, treated with T-614
anti-CCP antibodies = conditions: RA patients; anti-TNFα therapy in combination with low-dose methotrexate

| Compound | levels of human IgG in SCID-HuRag mice (human IgG) | anti-CCP titers (anti-CCP antibodies) |
| --- | --- | --- |
| CS(=O)(=O)Nc1cc2occ(NC=O)c(=O)c2cc1Oc1ccccc1 [T-614] | decreases |  |
| infliximab: anti-TNFalpha therapy, named in the cited title |  | decrease |
